Measured values published in patent US11214803B2, “Modulators of YAP1 expression” (Ionis Pharmaceuticals, Inc., priority 2019, dated 2022).
Strand notation (5' to 3'): a small letter for the sugar, then the base; units joined by * are phosphorothioate-linked, units joined directly phosphodiester-linked; [ ] holds rarer units or linkages, { } end groups; capitals alone tell only the bases. k = constrained ethyl (cEt); [5mC] = 5-methylcytosine; d = 2'-deoxy (DNA)

The substances below were run on Yap1 mRNA (assay: Antisense inhibition of human Yap1 in A-431 cells by cEt gapmers, single dose (Example 4, RTS4814)). Settings: Table 14; A-431 cells, 5,000 cells per well, free uptake, 2,000 nM, approximately 48 hours; RTS4814; normalized to RIBOGREEN; Yap1 mRNA relative to untreated control; * = targets amplicon region of primer probe set.
Format: cell-based
Method: Modified oligonucleotides were designed to target a Yap1 nucleic acid and were tested for their effect on Yap1 mRNA level in vitro. The modified oligonucleotides were tested in a series of experiments that had similar culture conditions. Cultured A-431 cells at a density of 5,000 cells per well were treated using free uptake with 2,000 nM of modified oligonucleotide. After a treatment period of approximately 48 hours, RNA was isolated from the cells and Yap1 mRNA levels were measured by quantitative real-time RTPCR. Human primer probe set RTS4814 was used to measure mRNA levels. Yap1 mRNA levels were normalized to total RNA content, as measured by RIBOGREEN®. Results are presented in the tables below as percent control of the amount of Yap1 mRNA relative to untreated control cells (% UTC). The modified oligonucleotides with percent control values marked with an asterisk (*) target the amplicon region of the primer probe set. Additional assays may be used to measure the potency and efficacy of the modified oligonucleotides targeting the amplicon region.
The newly designed modified oligonucleotides in the Tables below were designed as 3-10-3 cEt gapmers. The gapmers are 16 nucleosides in length, wherein the central gap segment comprises of ten 2′-deoxynucleosides and is flanked by wing segments on the 5′ direction and the 3′ direction comprising three nucleosides each. Each nucleoside in the 5′ wing segment and each nucleoside in the 3′ wing segment has a cEt sugar modification. The internucleoside linkages throughout each gapmer are phosphorothioate (P═S) linkages. All cytosine residues throughout each gapmer are 5-methylcytosines.
“Start site” indicates the 5′-most nucleoside to which the gapmer is targeted in the human gene sequence. “Stop site” indicates the 3′-most nucleoside to which the gapmer is targeted human gene sequence. […] Activity of the modified oligonucleotide may be defined in a different experiment.
For “1074912 (antisense kA*kT*k[5mC]*d[5mC]*d[5mC]*dG*dA*dG*dT*dG*dG*dG*d[5mC]*kT*kA*kA) [Compound 1074912]”, the “YAP1 (% UTC)” value was 85 % UTC. In the case of “1075424 (antisense kT*kT*kA*dT*dT*dA*dA*dT*d[5mC]*d[5mC]*dT*dG*dT*k[5mC]*k[5mC]*kA) [Compound 1075424]”, the “YAP1 (% UTC)” value is reported as 18 % UTC. For “1074144 (antisense kA*kG*k[5mC]*dG*dG*d[5mC]*dG*dA*d[5mC]*dG*dG*d[5mC]*dT*kG*k[5mC]*kG) [Compound 1074144]”, the “YAP1 (% UTC)” value was 92 % UTC. With “1076160 (kT*kT*kA*dT*dA*d[5mC]*dT*dA*dG*dT*dA*d[5mC]*dG*kG*k[5mC]*kA; antisense) [Compound 1076160]” the “YAP1 (% UTC)” value was 20 % UTC. “1074528 (k[5mC]*kT*kG*d[5mC]*d[5mC]*d[5mC]*d[5mC]*dA*dA*d[5mC]*d[5mC]*dA*dG*kA*kT*kT; antisense) [Compound 1074528]” was tested, and the “YAP1 (% UTC)” value was 25 % UTC. “1075328 (k[5mC]*kT*k[5mC]*dG*d[5mC]*dA*dA*dA*dG*d[5mC]*d[5mC]*dT*d[5mC]*kT*kT*k[5mC]; antisense) [Compound 1075328]” was tested, and the “YAP1 (% UTC)” value was 21 % UTC.

Same assay, conditions: Table 15; A-431 cells, 5,000 cells per well, free uptake, 2,000 nM, approximately 48 hours; RTS4814; normalized to RIBOGREEN; Yap1 mRNA relative to untreated control; * = targets amplicon region of primer probe set
In the case of “1076257 (k[5mC]*kT*kA*dA*dG*dA*dA*dA*d[5mC]*dT*d[5mC]*dA*dT*kA*kG*kT; antisense) [Compound 1076257]”, the “YAP1 (% UTC)” value is reported as 54 % UTC. With “1076001 (kA*k[5mC]*kT*d[5mC]*dA*dA*dG*dG*dA*dA*d[5mC]*d[5mC]*dA*kT*kT*kT; antisense) [Compound 1076001]” the “YAP1 (% UTC)” value was 24 % UTC. With “1074465 (kA*kA*kT*d[5mC]*dT*dA*dT*dA*dT*dT*dA*dG*dA*kG*kT*kA; antisense) [Compound 1074465]” the “YAP1 (% UTC)” value was 44 % UTC. For “1075841 (kA*kT*kT*dT*dA*dG*dG*dT*dA*d[5mC]*dT*d[5mC]*dA*kG*kT*kA; antisense) [Compound 1075841]”, the “YAP1 (% UTC)” value was 27 % UTC. With “1074593 (antisense kA*kG*kG*dA*dG*d[5mC]*dA*dA*dG*dT*d[5mC]*dT*dT*kG*kT*kA) [Compound 1074593]” the “YAP1 (% UTC)” value was 6 % UTC. With “1074401 (antisense kT*k[5mC]*k[5mC]*dG*dG*dT*dG*d[5mC]*dA*dT*dG*dT*dG*kT*k[5mC]*kT) [Compound 1074401]” the “YAP1 (% UTC)” value was 18 % UTC. In the case of “1075297 (kG*kT*kT*dA*dA*dT*dT*dA*dT*dA*dA*dG*d[5mC]*kT*kG*kT; antisense) [Compound 1075297]”, the “YAP1 (% UTC)” value is reported as 10 % UTC.

Same assay, conditions: Table 16; A-431 cells, 5,000 cells per well, free uptake, 2,000 nM, approximately 48 hours; RTS4814; normalized to RIBOGREEN; Yap1 mRNA relative to untreated control cells
In the case of “1075010 (antisense kA*kA*kT*dA*dA*dT*d[5mC]*dG*dA*dA*d[5mC]*dA*dT*kT*kG*kT) [Compound 1075010]”, the “YAP1 (% UTC)” value is reported as 88 % UTC. In the case of “1074338 (antisense kG*kG*kA*dT*dT*dT*dT*dG*dA*dG*dT*d[5mC]*d[5mC]*k[5mC]*kA*k[5mC]) [Compound 1074338]”, the “YAP1 (% UTC)” value is reported as 77 % UTC. In the case of “1076194 (kT*kT*kT*dA*dA*dT*dA*d[5mC]*dA*d[5mC]*dA*dG*dG*kT*kT*k[5mC]; antisense) [Compound 1076194]”, the “YAP1 (% UTC)” value is reported as 22 % UTC. With “1074978 (antisense kT*kT*kG*d[5mC]*d[5mC]*dA*dG*dT*dT*d[5mC]*dT*dT*dG*kT*kT*k[5mC]) [Compound 1074978]” the “YAP1 (% UTC)” value was 38 % UTC. With “1075362 (k[5mC]*kA*kG*dG*dA*dA*dA*dA*dA*dT*d[5mC]*dT*dA*kG*kG*kT; antisense) [Compound 1075362]” the “YAP1 (% UTC)” value was 50 % UTC.

Same assay, conditions: Table 17; A-431 cells, 5,000 cells per well, free uptake, 2,000 nM, approximately 48 hours; RTS4814; normalized to RIBOGREEN; Yap1 mRNA relative to untreated control cells
For “1075235 (antisense kA*kG*kT*dA*dA*dA*dT*dA*d[5mC]*dT*d[5mC]*dT*dA*kG*kT*kT) [Compound 1075235]”, the “YAP1 (% UTC)” value was 38 % UTC. With “1075971 (kT*kA*kT*dT*dA*dA*d[5mC]*dA*dT*dA*d[5mC]*d[5mC]*dT*k[5mC]*kA*kT; antisense) [Compound 1075971]” the “YAP1 (% UTC)” value was 28 % UTC. “1075075 (antisense kA*kA*kT*dT*dT*dT*dA*dT*dA*dA*dG*d[5mC]*d[5mC]*k[5mC]*kA*k[5mC]) [Compound 1075075]” was tested, and the “YAP1 (% UTC)” value was 9 % UTC. With “1075331 (kG*kA*kT*dA*dA*dA*d[5mC]*dA*d[5mC]*dT*dG*d[5mC]*dA*kG*kA*kG; antisense) [Compound 1075331]” the “YAP1 (% UTC)” value was 33 % UTC. “1074115 (antisense kA*kG*kA*dA*d[5mC]*dT*dT*dT*dT*dT*d[5mC]*d[5mC]*d[5mC]*kT*k[5mC]*k[5mC]) [Compound 1074115]” was tested, and the “YAP1 (% UTC)” value was 33 % UTC. In the case of “1076195 (kA*kA*kT*dA*dA*d[5mC]*dA*dT*dG*dG*dT*dT*d[5mC]*kT*kG*kT; antisense) [Compound 1076195]”, the “YAP1 (% UTC)” value is reported as 20 % UTC. For “1075011 (antisense kG*k[5mC]*kA*d[5mC]*dA*dA*dT*dA*dA*dT*d[5mC]*dG*dA*kA*k[5mC]*kA) [Compound 1075011]”, the “YAP1 (% UTC)” value was 44 % UTC.

Same assay, conditions: Yap1 mRNA remaining as percent of untreated control; 3-10-3 cEt gapmers; A-431 cells; Table 36
“1076342 (antisense k[5mC]*kA*kT*dT*dA*dA*d[5mC]*dT*dA*d[5mC]*dA*dA*d[5mC]*kT*kG*kT) [compound 1076342]” was tested, and the “YAP1 (% UTC)” value was 33 % UTC. In the case of “1074934 (antisense k[5mC]*kA*kG*dG*dA*dG*dA*d[5mC]*dT*dA*dT*dA*d[5mC]*kA*kA*k[5mC]) [compound 1074934]”, the “YAP1 (% UTC)” value is reported as 74 % UTC. In the case of “1076310 (kA*k[5mC]*k[5mC]*d[5mC]*dT*dA*dT*dA*d[5mC]*dT*dT*dG*dA*kA*kT*kT; antisense) [compound 1076310]”, the “YAP1 (% UTC)” value is reported as 36 % UTC. In the case of “1075862 (antisense k[5mC]*kT*kA*dA*dT*dA*dA*d[5mC]*dT*dT*dG*dT*d[5mC]*kT*kA*k[5mC]) [compound 1075862]”, the “YAP1 (% UTC)” value is reported as 67 % UTC.

Same assay, conditions: Yap1 mRNA remaining as percent of untreated control; 3-10-3 cEt gapmers; A-431 cells; Table 37
In the case of “1074647 (antisense k[5mC]*kA*kA*dA*dT*dT*dG*dA*dA*dG*dG*dG*d[5mC]*k[5mC]*kA*kA) [compound 1074647]”, the “YAP1 (% UTC)” value is reported as 27 % UTC. In the case of “1076087 (k[5mC]*kA*kA*dA*d[5mC]*dT*dA*dA*dT*dA*dG*dG*d[5mC]*k[5mC]*kA*kT; antisense) [compound 1076087]”, the “YAP1 (% UTC)” value is reported as 10 % UTC. For “1075287 (antisense kT*kA*kT*dT*dA*d[5mC]*dG*dG*dA*d[5mC]*dA*dG*dA*kA*kG*kT) [compound 1075287]”, the “YAP1 (% UTC)” value was 58 % UTC. “1075831 (kT*kA*kT*dT*dA*dG*d[5mC]*d[5mC]*dT*dT*d[5mC]*dT*dA*kA*k[5mC]*k[5mC]; antisense) [compound 1075831]” was tested, and the “YAP1 (% UTC)” value was 59 % UTC. “1074999 (antisense kA*kA*k[5mC]*d[5mC]*dA*dA*d[5mC]*dA*d[5mC]*dG*d[5mC]*dG*dA*k[5mC]*k[5mC]*kT) [compound 1074999]” was tested, and the “YAP1 (% UTC)” value was 77 % UTC. In the case of “1076503 (kA*kA*kT*dT*dA*d[5mC]*d[5mC]*d[5mC]*d[5mC]*dT*dG*dT*dG*kA*kG*kG; antisense) [compound 1076503]”, the “YAP1 (% UTC)” value is reported as 77 % UTC. With “1074391 (kG*kT*k[5mC]*dA*dG*dA*dA*d[5mC]*dT*d[5mC]*dA*dA*dA*kG*k[5mC]*kT; antisense) [compound 1074391]” the “YAP1 (% UTC)” value was 14 % UTC. With “1076311 (kT*kA*kT*dA*dA*d[5mC]*d[5mC]*d[5mC]*dT*dA*dT*dA*d[5mC]*kT*kT*kG; antisense) [compound 1076311]” the “YAP1 (% UTC)” value was 56 % UTC. “1076247 (kG*kA*k[5mC]*d[5mC]*dA*dA*dA*dA*d[5mC]*dA*dG*d[5mC]*dT*k[5mC]*kT*kT; antisense) [compound 1076247]” was tested, and the “YAP1 (% UTC)” value was 11 % UTC. “1076343 (antisense kA*kG*kA*d[5mC]*dT*dA*dA*dA*dT*d[5mC]*dT*dT*d[5mC]*k[5mC]*k[5mC]*kT) [compound 1076343]” was tested, and the “YAP1 (% UTC)” value was 8 % UTC.
